pIC50: −log10 of the molar value.
target: NAMPT (Homo sapiens (Human), UniProt P43490); experiment: NAMPT biochemical inhibition assay (NMN quantified by mass spectrometry); settings: NAMPT biochemical inhibition; read-out: Biochem IC50
Sequence (P43490 whole entry): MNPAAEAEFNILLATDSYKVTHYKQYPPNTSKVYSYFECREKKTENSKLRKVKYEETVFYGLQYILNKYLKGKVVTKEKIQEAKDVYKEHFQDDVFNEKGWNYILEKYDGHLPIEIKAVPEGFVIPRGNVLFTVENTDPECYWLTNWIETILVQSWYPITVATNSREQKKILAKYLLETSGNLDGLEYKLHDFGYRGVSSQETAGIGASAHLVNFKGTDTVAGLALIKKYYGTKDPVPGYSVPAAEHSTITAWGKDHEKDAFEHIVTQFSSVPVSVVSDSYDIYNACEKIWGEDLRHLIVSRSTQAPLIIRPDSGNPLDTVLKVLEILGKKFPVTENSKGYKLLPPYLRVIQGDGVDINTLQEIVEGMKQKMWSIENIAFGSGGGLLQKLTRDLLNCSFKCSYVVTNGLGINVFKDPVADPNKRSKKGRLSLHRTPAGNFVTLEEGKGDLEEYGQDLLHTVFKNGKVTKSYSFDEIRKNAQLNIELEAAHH

Structure (SMILES)	pIC50
O=C(NCc1cccnc1)Nc1ccc(S(=O)(=O)N2CC3CCC2C3)cc1 (centres unmarked) [1-(4-{2-azabicyclo[2.2.1]heptane-2-sulfonyl}phenyl)-3-(pyridin-3-ylmethyl)urea]	8.00
O=C(NCc1cccnc1)Nc1ccc(S(=O)(=O)N2CCC3(CCOC3)CC2)cc1 [1-(4-{2-oxa-8-azaspiro[4.5]decane-8-sulfonyl}phenyl)-3-(pyridin-3-ylmethyl)urea]	8.30
O=C(NCc1cccnc1)Nc1ccc(S(=O)(=O)N2Cc3cccc4cccc(c34)C2)cc1 [1-(4-{3-azatricyclo[7.3.1.0^5,^13]trideca-1(13),5,7,9,11-pentaene-3-sulfonyl}phenyl)-3-(pyridin-3-ylmethyl)urea]	8.70
O=C(NCc1cccnc1)Nc1ccc(S(=O)(=O)Nc2cccc(C(F)(F)F)c2)cc1 [1-(pyridin-3-ylmethyl)-3-(4-{[3-(trifluoromethyl)phenyl]sulfamoyl}phenyl)urea]	8.22
O=C(NCc1cccnc1)Nc1ccc(S(=O)(=O)N2CCN(c3ccccc3)CC2)cc1 [1-[4-(4-phenylpiperazine-1-sulfonyl)phenyl]-3-(pyridin-3-ylmethyl)urea]	8.30
CN(Cc1ccc(F)cc1)S(=O)(=O)c1ccc(NC(=O)NCc2cccnc2)cc1 [3-(4-{[(4-fluorophenyl)methyl](methyl)sulfamoyl}phenyl)-1-(pyridin-3-ylmethyl)urea]	8.52
O=C(NCc1cccnc1)Nc1ccc(S(=O)(=O)Nc2ccccc2F)cc1 [3-{4-[(2-fluorophenyl)sulfamoyl]phenyl}-1-(pyridin-3-ylmethyl)urea]	8.10
O=C(NCc1cccnc1)Nc1ccc(S(=O)(=O)Nc2cccc(Br)c2)cc1 [3-{4-[(3-bromophenyl)sulfamoyl]phenyl}-1-(pyridin-3-ylmethyl)urea]	8.52
CCc1ccc(NS(=O)(=O)c2ccc(NC(=O)NCc3cccnc3)cc2)cc1 [3-{4-[(4-ethylphenyl)sulfamoyl]phenyl}-1-(pyridin-3-ylmethyl)urea]	8.15
CC(C)CN(C)S(=O)(=O)c1ccc(NC(=O)NCc2cccnc2)cc1 [3-{4-[methyl(2-methylpropyl)sulfamoyl]phenyl}-1-(pyridin-3-ylmethyl)urea]	8.15
CN(Cc1cccc(C(F)(F)F)c1)S(=O)(=O)c1ccc(NC(=O)NCc2cccnc2)cc1 [3-{4-[methyl({[3-(trifluoromethyl)phenyl]methyl})sulfamoyl]phenyl}-1-(pyridin-3-ylmethyl)urea]	8.15

Now from value to compound:

pIC50	Structure (SMILES)
8.70	O=C(NCc1cccnc1)Nc1ccc(S(=O)(=O)N2CC[C@H]3CCCC[C@@H]3C2)cc1 (relative stereo) [rel-3-{4-[(4aR,8aS)-decahydroisoquinoline-2-sulfonyl]phenyl}-1-(pyridin-3-ylmethyl)urea]
8.52	O=C(NCc1cccnc1)Nc1ccc(S(=O)(=O)N2CCCC(CN3CCCC3=O)C2)cc1 (centres unmarked) [1-(4-{3-[(2-oxopyrrolidin-1-yl)methyl]piperidine-1-sulfonyl}phenyl)-3-(pyridin-3-ylmethyl)urea]
7.96	O=C(NCc1cccnc1)Nc1ccc(S(=O)(=O)N2CCC3(CCCCC3)CC2)cc1 [1-(4-{3-azaspiro[5.5]undecane-3-sulfonyl}phenyl)-3-(pyridin-3-ylmethyl)urea]
8.52	O=C(NCc1cccnc1)Nc1ccc(S(=O)(=O)N2CCC(c3ccccc3)CC2)cc1 [1-[4-(4-phenylpiperidine-1-sulfonyl)phenyl]-3-(pyridin-3-ylmethyl)urea]
8.10	O=C(NCc1cccnc1)Nc1ccc(S(=O)(=O)c2ccc(F)cc2Cl)cc1 [3-{4-[(2-chloro-4-fluorobenzene)sulfonyl]phenyl}-1-(pyridin-3-ylmethyl)urea]
9.00	O=C(NCc1cccnc1)Nc1ccc(S(=O)(=O)Nc2cccc(Cl)c2)cc1 [3-{4-[(3-chlorophenyl)sulfamoyl]phenyl]-1-(pyridin-3-ylmethyl)urea]
8.00	Cc1cccc(NS(=O)(=O)c2ccc(NC(=O)NCc3cccnc3)cc2)c1 [3-{4-[(3-methylphenyl)sulfamoyl]phenyl}-1-(pyridin-3-ylmethyl)urea]

system: A2780 cells; experiment: In-vitro cell proliferation assay (SRB), A2780 cells; type: cell-based; settings: A2780 cells, 72 hours, SRB; read-out: A2780 IC50;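 note: viable cell number read as SRB absorbance, background from media-only wells subtracted, IC50 interpolated from percent inhibition at two bracketing compound concentrations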

Structure (SMILES)	pIC50
O=C(NCc1cccnc1)Nc1ccc(S(=O)(=O)N2Cc3cccc4cccc(c34)C2)cc1 [1-(4-{3-azatricyclo[7.3.1.0^5,^13]trideca-1(13),5,7,9,11-pentaene-3-sulfonyl}phenyl)-3-(pyridin-3-ylmethyl)urea]	7.59

same assay, conditions: Homo sapiens, A2780, 72 h, A2780 cells, 72 hours, SRB; read-out: A2780 IC50

Structure (SMILES)	pIC50
O=C(NCc1cccnc1)Nc1ccc(S(=O)(=O)N2CC3CCC2C3)cc1 (centres unmarked) [1-(4-{2-azabicyclo[2.2.1]heptane-2-sulfonyl}phenyl)-3-(pyridin-3-ylmethyl)urea]	6.63
O=C(NCc1cccnc1)Nc1ccc(S(=O)(=O)N2CCC3(CCOC3)CC2)cc1 [1-(4-{2-oxa-8-azaspiro[4.5]decane-8-sulfonyl}phenyl)-3-(pyridin-3-ylmethyl)urea]	7.05
O=C(NCc1cccnc1)Nc1ccc(S(=O)(=O)N2C3CCC2COC3)cc1 [1-(4-{3-oxa-8-azabicyclo[3.2.1]octane-8-sulfonyl}phenyl)-3-(pyridin-3-ylmethyl)urea]	6.54
O=C(NCc1cc[nH]n1)Nc1ccc(S(=O)(=O)c2ccccc2)cc1 [1-[4-(benzenesulfonyl)phenyl]-3-(1H-pyrazol-3-ylmethyl)urea]	< 4.70
O=C(NCc1cccnc1)Nc1ccc(S(=O)(=O)N2CCOCC2)cc1 [1-[4-(morpholine-4-sulfonyl)phenyl]-3-(pyridin-3-ylmethyl)urea]	5.87
O=C(NCc1cccnc1)Nc1ccc(S(=O)(=O)N2CCCCC2)cc1 [1-[4-(piperidine-1-sulfonyl)phenyl]-3-(pyridin-3-ylmethyl)urea]	6.78
NC(=O)C1CCN(S(=O)(=O)c2ccc(NC(=O)NCc3cccnc3)cc2)CC1 [1-[(4-{[(pyridin-3-ylmethyl)carbamoyl]amino}benzene)sulfonyl]piperidine-4-carboxamide]	5.83
O=C(NCc1cccnc1)Nc1ccc(S(=O)(=O)c2ccc(-n3cccn3)c(F)c2)cc1 [3-(4-{[3-fluoro-4-(1H-pyrazol-1-yl)benzene]sulfonyl}phenyl)-1-(pyridin-3-ylmethyl)urea]	7.27
C[C@@H]1[C@@H](NS(=O)(=O)c2ccc(NC(=O)NCc3cccnc3)cc2)C[C@H]2C[C@@H]1C2(C)C [3-(pyridin-3-ylmethyl)-1-(4-{[(1S,2S,3S,5R)-2,6,6-trimethylbicyclo[3.1.1]heptan-3-yl]sulfamoyl}phenyl)urea]	7.02
O=C(NCc1cccnc1)Nc1ccc(S(=O)(=O)N2CCCC2)cc1 [3-(pyridin-3-ylmethyl)-1-[4-(pyrrolidine-1-sulfonyl)phenyl]urea]	5.85
Cn1cc(S(=O)(=O)c2ccc(NC(=O)NCc3cccnc3)cc2)cn1 [3-[4-(1-methyl-1H-pyrazole-4-sulfonyl)phenyl]-1-(pyridin-3-ylmethyl)urea]	6.61
O=C(NCc1cccnc1)Nc1ccc(S(=O)(=O)N2CCCCCC2)cc1 [3-[4-(azepane-1-sulfonyl)phenyl]-1-(pyridin-3-ylmethyl)urea]	6.86
O=C(NCc1cccnc1)Nc1ccc(S(=O)(=O)N2CCC2)cc1 [3-[4-(azetidine-1-sulfonyl)phenyl]-1-(pyridin-3-ylmethyl)urea]	5.79
O=C(Nc1ccc(S(=O)(=O)c2ccccc2)cc1)Nc1cccnc1 [3-[4-(benzenesulfonyl)phenyl]-1-(pyridin-3-yl)urea]	4.56
CN(C)c1ccc(CNC(=O)Nc2ccc(S(=O)(=O)c3ccccc3)cc2)cn1 [3-[4-(benzenesulfonyl)phenyl]-1-{[6-(dimethylamino)pyridin-3-yl]methyl}urea]	4.56
O=C(NCCc1cccnc1)Nc1ccc(S(=O)(=O)N2CCCCC2)cc1 [3-[4-(piperidine-1-sulfonyl)phenyl]-1-[2-(pyridin-3-yl)ethyl]urea]	6.18
O=C(NCc1ccccc1F)Nc1ccc(S(=O)(=O)N2CCCCC2)cc1 [3-[(2-fluorophenyl)methyl]-1-[4-(piperidine-1-sulfonyl)phenyl]urea]	< 4.52
O=C(NCc1cccc(F)c1)Nc1ccc(S(=O)(=O)N2CCCCC2)cc1 [3-[(3-fluorophenyl)methyl]-1-[4-(piperidine-1-sulfonyl)phenyl]urea]	< 4.52
O=C(NCc1ccccc1)Nc1ccc(S(=O)(=O)N2CCCCC2)cc1 [3-benzyl-1-[4-(piperidine-1-sulfonyl)phenyl]urea]	< 4.52
O=C(NCc1ccc(S(=O)(=O)N2CCCCC2)cc1)Nc1cccnc1 [3-{[4-(piperidine-1-sulfonyl)phenyl]methyl}-1-(pyridin-3-yl)urea]	5.65
O=C(NCc1ccc(S(=O)(=O)N2CCCCC2)cc1)NCc1cccnc1 [3-{[4-(piperidine-1-sulfonyl)phenyl]methyl}-1-(pyridin-3-ylmethyl)urea]	6.26
C[C@@H]1CN(S(=O)(=O)c2ccc(NC(=O)NCc3cccnc3)cc2)C[C@H](C)O1 [rel-3-{4-[(2R,6S)-2,6-dimethylmorpholine-4-sulfonyl]phenyl}-1-(pyridin-3-ylmethyl)urea]	7.87

Results, then the compound that gave them:

pIC50	Structure (SMILES)
7.00	O=C(NCc1cccnc1)Nc1ccc(S(=O)(=O)N2CC[C@H]3CCCC[C@@H]3C2)cc1 (relative stereo) [rel-3-{4-[(4aR,8aS)-decahydroisoquinoline-2-sulfonyl]phenyl}-1-(pyridin-3-ylmethyl)urea]
6.13	O=C(NCc1cccnc1)Nc1ccc(C(=O)c2ccccc2)cc1 [1-(4-benzoylphenyl)-3-(pyridin-3-ylmethyl)urea]
6.84	O=C(NCc1cccnc1)Nc1ccc(S(=O)(=O)N2CCCC(CN3CCCC3=O)C2)cc1 (centres unmarked) [1-(4-{3-[(2-oxopyrrolidin-1-yl)methyl]piperidine-1-sulfonyl}phenyl)-3-(pyridin-3-ylmethyl)urea]
6.84	O=C(NCc1cccnc1)Nc1ccc(S(=O)(=O)N2CCC3(CCCCC3)CC2)cc1 [1-(4-{3-azaspiro[5.5]undecane-3-sulfonyl}phenyl)-3-(pyridin-3-ylmethyl)urea]
< 4.52	O=C(NCc1cccnc1)Nc1cccc(S(=O)(=O)N2CCCCC2)c1 [1-[3-(piperidine-1-sulfonyl)phenyl]-3-(pyridin-3-ylmethyl)urea]
5.60	Nc1cccc(CNC(=O)Nc2ccc(S(=O)(=O)c3ccccc3)cc2)c1 [1-[(3-aminophenyl)methyl]-3-[4-(benzenesulfonyl)phenyl]urea]
4.60	O=C(NCc1ccc(F)cc1)Nc1ccc(S(=O)(=O)N2CCCCC2)cc1 [1-[(4-fluorophenyl)methyl]-3-[4-(piperidine-1-sulfonyl)phenyl]urea]
6.06	O=C(NCc1cccnc1)Nc1ccc(S(=O)(=O)c2ccccn2)cc1 [3-(pyridin-3-ylmethyl)-1-[4-(pyridine-2-sulfonyl)phenyl]urea]
6.60	CC1CCN(S(=O)(=O)c2ccc(NC(=O)NCc3cccnc3)cc2)CC1 [3-[4-(4-methylpiperidine-1-sulfonyl)phenyl]-1-(pyridin-3-ylmethyl)urea]
6.12	O=C(NCc1cncc(F)c1)Nc1ccc(S(=O)(=O)N2CCCCC2)cc1 [3-[(5-fluoropyridin-3-yl)methyl]-1-[4-(piperidine-1-sulfonyl)phenyl]urea]
6.98	C[C@H]1CCCN(S(=O)(=O)c2ccc(NC(=O)NCc3cccnc3)cc2)C1 [3-{4-[(3S)-3-methylpiperidine-1-sulfonyl]phenyl}-1-(pyridin-3-ylmethyl)urea]

same assay, conditions: Homo sapiens, A2780, 72 h, read-out: A2780 IC50

Structure (SMILES)	pIC50
Nc1ccc(CNC(=O)Nc2ccc(S(=O)(=O)c3ccccc3)cc2)cn1 [1-[(6-aminopyridin-3-yl)methyl]-3-[4-(benzenesulfonyl)phenyl]urea]	7.09

Reference: patent publication US11279687B2, “Compounds and compositions for the inhibition of NAMPT” (Valo Health, Inc., priority 2010, dated 2022)
